Measurements taken from US20140005163A1 (NOVARTIS AG, priority 2010, published 2014).
pIC50: −log10 of the molar value. Converted amounts (≈) assume the structure as drawn.

Tests used:
[1] = system: PKB Ser473 phosphorylation in Rat1-myr-HA-p110 beta cells; test: Reverse protein array assay, PKB Ser473 phosphorylation in Rat1-myr-p110 beta cells; type: cell-based; details: 0.5 h, pAkt Ser473, 30 minutes incubation, read-out: p-PKB IC50
Outline: (§1)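 Lysates were arrayed at four dilutions, and phospho-PKB Ser473 was quantified by relative fluorescence signal. They came from Rat1-myr-HA-p110 alpha, beta or delta cells exposed for 30 min at 37 °C to an 8-point compound series with 0.2% DMSO constant.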

[2] = system: S6 Ribosomal Protein phosphorylation Ser235/236 in TSC1 null mouse embryo fibroblast (MEF) cells; test: Reverse protein array assay, S6 Ribosomal Protein phosphorylation Ser235/236 in TSC1 null MEF cells; type: cell-based; details: 1 h, pS6 ribosomal protein Ser235/236, 60 minutes incubation, read-out: p-S6 IC50
Outline: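 TSC1−/− MEFs, seeded and held ≥20 h at 37 °C/5% CO2, were exposed to 8-step serial compound dilutions (0.02% DMSO final; DMSO vehicle control) for 60 min at 37 °C. Cells were then lysed on ice for 10 min and lysates spotted onto reverse protein array chips.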

[3] = system: PKB Ser473 phosphorylation in Rat1-myr-HA-p110 alpha cells; test: Reverse protein array assay, PKB Ser473 phosphorylation in Rat1-myr-p110 alpha cells; type: cell-based; details: 0.5 h, pAkt Ser473, 30 minutes compound incubation, read-out: p-PKB IC50
Outline: as §1

[4] = system: PKB Ser473 phosphorylation in Rat1-myr-HA-p110 delta cells; test: Reverse protein array assay, PKB Ser473 phosphorylation in Rat1-myr-p110 delta cells; type: cell-based; details: read-out: p-PKB IC50
Outline: as §1

Solubility at pH 6.8 = type: physicochemical; details: pH 6.8, aqueous buffer, thermodynamic from solid; read-out: solubility
Outline: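 Solubility was measured at pH 6.8 following the cited Zhou et al. (2007) procedure.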

mTOR = target: T1, mTOR (Homo sapiens, UniProt P42345); test: Biochemical assay for m-TOR by TR-FRET; details: 8 μM ATP, 400 nM GFP-4EBP1, 0.5 nM mTOR
T1 construct: purchased Invitrogen Corporation (Carlsbad/CA, USA) PV4753
T1 sequence (P42345 1360-2549 limits assumed): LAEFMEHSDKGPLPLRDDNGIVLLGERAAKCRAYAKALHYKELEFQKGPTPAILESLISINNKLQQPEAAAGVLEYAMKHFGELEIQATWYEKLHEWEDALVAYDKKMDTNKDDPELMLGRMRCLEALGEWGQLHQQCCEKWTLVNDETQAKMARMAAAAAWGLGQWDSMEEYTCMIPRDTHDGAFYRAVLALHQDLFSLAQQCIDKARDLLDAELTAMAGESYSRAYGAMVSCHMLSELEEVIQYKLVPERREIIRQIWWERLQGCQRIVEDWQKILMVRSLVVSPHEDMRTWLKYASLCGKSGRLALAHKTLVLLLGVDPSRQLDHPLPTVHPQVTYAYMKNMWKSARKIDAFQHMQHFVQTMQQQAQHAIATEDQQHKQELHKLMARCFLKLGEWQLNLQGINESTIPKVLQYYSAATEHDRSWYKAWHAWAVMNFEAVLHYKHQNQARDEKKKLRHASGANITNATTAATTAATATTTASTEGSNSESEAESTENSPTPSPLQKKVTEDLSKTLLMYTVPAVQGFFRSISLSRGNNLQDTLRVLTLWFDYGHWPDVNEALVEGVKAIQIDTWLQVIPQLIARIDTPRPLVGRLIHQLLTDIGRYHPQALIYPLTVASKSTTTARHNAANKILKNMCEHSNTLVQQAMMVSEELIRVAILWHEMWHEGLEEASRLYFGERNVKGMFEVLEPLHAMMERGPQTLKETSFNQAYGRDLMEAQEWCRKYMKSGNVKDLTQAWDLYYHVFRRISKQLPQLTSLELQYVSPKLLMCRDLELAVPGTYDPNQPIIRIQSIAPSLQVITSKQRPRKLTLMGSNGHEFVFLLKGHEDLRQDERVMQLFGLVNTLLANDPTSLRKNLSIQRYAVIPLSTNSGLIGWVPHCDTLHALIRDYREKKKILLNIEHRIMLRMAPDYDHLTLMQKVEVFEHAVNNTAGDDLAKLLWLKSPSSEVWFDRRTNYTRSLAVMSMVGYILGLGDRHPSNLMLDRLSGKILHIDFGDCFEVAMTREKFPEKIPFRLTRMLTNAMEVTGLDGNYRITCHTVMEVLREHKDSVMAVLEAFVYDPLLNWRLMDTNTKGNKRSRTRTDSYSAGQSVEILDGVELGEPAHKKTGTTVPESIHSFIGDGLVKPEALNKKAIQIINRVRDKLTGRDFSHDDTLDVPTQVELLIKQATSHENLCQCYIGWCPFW
Outline: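 mTOR (0.5 nM) was incubated at rt with ATP (8 μM final) and GFP-4EBP1 (400 nM final) in 50 mM HEPES pH 7.5, 10 mM MnCl2, 50 mM NaCl, 1 mM EGTA, 1 mM DTT. EDTA stop with Tb3+-anti-p4EBP1 [pThr46] antibody (0.5 nM); TR-FRET read 15 min later.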

SMILES	pIC50 [1]	pIC50 [3]	pIC50 [4]	solubility (Solubility at pH 6.8)	pIC50 (mTOR)	pIC50 [2]
Cc1nn(C)cc1-n1c(=O)n(C)c2cnc3ccc(-c4ccc(N5CC[C@@H](O)C5)nc4)cc3c21 [Example 212.1, 1-(1,3-Dimethyl-1H-pyrazol-4-yl)-8-[6-((R)-3-hydroxy-pyrrolidin-1-yl)-pyridin-3-yl]-3-methyl-1,3-dihydro-imidazo[4,5-c]quinolin-2-one]	6.70	6.87	6.11	55 µg/mL (≈ 121 µM)	7.14	8.15
Cc1nn(C(C)C)cc1-n1c(=O)n(C)c2cnc3ccc(-c4cncc(C(C)(C)O)c4)cc3c21 [Example 215.1, 8-[5-(1-Hydroxy-1-methyl-ethyl)-pyridin-3-yl]-1-(1-isopropyl-3-methyl-1H-pyrazol-4-yl)-3-methyl-1,3-dihydro-imidazo[4,5-c]quinolin-2-one]	7.32	7.80	6.48	> 457 µg/mL	7.46	7.41
CNC(=O)c1cc(-c2ccc3ncc4c(c3c2)n(-c2cn(C)nc2C)c(=O)n4C)cnc1N [Example 224.1, 2-Amino-5-[1-(1,3-dimethyl-1H-pyrazol-4-yl)-3-methyl-2-oxo-2,3-dihydro-1H-imidazo[4,5-c]quinolin-8-yl]-N-methyl-nicotinamide]	7.23	7.72	6.81	5 µg/mL (≈ 11.3 µM)	7.47	8.52
CCNC(=O)c1cc(-c2ccc3ncc4c(c3c2)n(-c2cn(C)nc2C)c(=O)n4C)cnc1NC [Example 242.1, 5-[1-(1,3-Dimethyl-1H-pyrazol-4-yl)-3-methyl-2-oxo-2,3-dihydro-1H-imidazo[4,5-c]quinolin-8-yl]-N-ethyl-2-methylamino-nicotinamide]	7.03	7.35	7.07	5 µg/mL (≈ 10.6 µM)	7.24	8.70
CCOc1cc(-c2ccc3ncc4c(c3c2)n(-c2cn(C)nc2C)c(=O)n4C)cnc1CO [Example 243, 1-(1,3-Dimethyl-1H-pyrazol-4-yl)-8-(5-ethoxy-6-hydroxymethyl-pyridin-3-yl)-3-methyl-1,3-dihydro-imidazo[4,5-c]quinolin-2-one]	7.35	7.44	7.04	43 µg/mL (≈ 96.7 µM)	7.51	8.40
COCCOc1cc(-c2ccc3ncc4c(c3c2)n(-c2cn(C)nc2C)c(=O)n4C)cnc1CO [Example 244, 1-(1,3-Dimethyl-1H-pyrazol-4-yl)-8-[6-hydroxymethyl-5-(2-methoxy-ethoxy)-pyridin-3-yl]-3-methyl-1,3-dihydro-imidazo[4,5-c]quinolin-2-one]	6.41	6.94	6.46	92 µg/mL (≈ 194 µM)	7.10	7.60

Further lines, with some results ahead:

pIC50 [1]	pIC50 [3]	pIC50 [4]	solubility (Solubility at pH 6.8)	pIC50 (mTOR)	SMILES	pIC50 [2]
6.87	7.70	6.94	> 443 µg/mL	7.89	CCn1cc(-n2c(=O)n(C)c3cnc4ccc(-c5cncc(C(C)(C)O)c5)cc4c32)c(C)n1 [Example 215.4, 1-(1-Ethyl-3-methyl-1H-pyrazol-4-yl)-8-[5-(1-hydroxy-1-methyl-ethyl)-pyridin-3-yl]-3-methyl-1,3-dihydro-imidazo[4,5-c]quinolin-2-one]	> 9.30
7.26	7.59	7.59	11 µg/mL (≈ 23.5 µM)	7.19	Cc1nn(C)cc1-n1c(=O)n(C)c2cnc3ccc(-c4cnc5c(c4)C(C)(C)C(=O)N5C)cc3c21 [Example 233, 1-(1,3-Dimethyl-1H-pyrazol-4-yl)-3-methyl-8-(1,3,3-trimethyl-2-oxo-2,3-dihydro-1H-pyrrolo[2,3-b]pyridin-5-yl)-1,3-dihydro-imidazo[4,5-c]quinolin-2-one]	8.52
7.77	8.00	7.59	58 µg/mL (≈ 130 µM)	7.85	CCn1cc(-n2c(=O)n(C)c3cnc4ccc(-c5cnc(OC)nc5OC)cc4c32)c(C)n1 [Example 234.1, 8-(2,4-Dimethoxy-pyrimidin-5-yl)-1-(1-ethyl-3-methyl-1H-pyrazol-4-yl)-3-methyl-1,3-dihydro-imidazo[4,5-c]quinolin-2-one]	8.05
7.03	7.55	7.39	125 µg/mL (≈ 282 µM)	7.31	COC(C)(C)c1cncc(-c2ccc3ncc4c(c3c2)n(-c2cn(C)nc2C)c(=O)n4C)c1 [Example 239, 1-(1,3-Dimethyl-1H-pyrazol-4-yl)-8-[5-(1-methoxy-1-methyl-ethyl)-pyridin-3-yl]-3-methyl-1,3-dihydro-imidazo[4,5-c]quinolin-2-one]	9.00
7.19	7.49	6.85	12 µg/mL (≈ 27 µM)	6.98	CCn1c(=O)n(-c2cn(C)nc2C)c2c3nc(-c4ccc(OC)c(OC)c4)ccc3ncc21 [Example 251, 8-(3,4-Dimethoxy-phenyl)-1-(1,3-dimethyl-1H-pyrazol-4-yl)-3-ethyl-1,3-dihydro-1,3,5,9-tetraaza-cyclopenta[a]naphthalen-2-one]	7.48
7.70	7.92	7.41	5 µg/mL (≈ 12 µM)	8.00	COc1ccc(-c2ccc3ncc4[nH]c(=O)n(-c5cc(C)nn5C)c4c3n2)cc1OC [Example 252, 8-(3,4-Dimethoxy-phenyl)-1-(2,5-dimethyl-2H-pyrazol-3-yl)-1,3-dihydro-1,3,5,9-tetraaza-cyclopenta[a]naphthalen-2-one]	8.30
7.80	7.74	7.36	7 µg/mL (≈ 16.3 µM)	8.52	COc1ccc(-c2ccc3ncc4c(c3n2)n(-c2cc(C)nn2C)c(=O)n4C)cc1OC [Example 253, 8-(3,4-Dimethoxy-phenyl)-1-(2,5-dimethyl-2H-pyrazol-3-yl)-3-methyl-1,3-dihydro-1,3,5,9-tetraaza-cyclopenta[a]naphthalen-2-one]	> 8.30
